According to ChEMBL document CHEMBL3763148, “Synthesis, structure elucidation, DNA-PK and PI3K and anti-cancer activity of 8- and 6-aryl-substituted-1-3-benzoxazines” (Eur J Med Chem, 2016):

Experiments:
[1] = molecular target: Phosphatidylinositol 4,5-bisphosphate 3-kinase catalytic subunit gamma isoform (Homo sapiens) (UniProt P48736); experiment: Inhibition of PI3Kgamma (unknown origin) at 10 uM incubated for 60 mins by kinase-glo luminescence assay
[2] = Cytotoxicity against human HL-60(TB) cells assessed as cell growth inhibition at 10 uM after 48 hrs by SRB assay relative to control; format: functional; conditions: HL-60, 48 h, read-out: GI
[3] = tested on: K562; experiment: Cytotoxicity against human K562 cells assessed as cell growth inhibition at 10 uM after 48 hrs by SRB assay relative to control; format: functional; conditions: K562, 48 h, read-out: GI
[4] = Cytotoxicity against human MOLT4 cells assessed as cell growth inhibition at 10 uM after 48 hrs by SRB assay relative to control; format: functional; conditions: MOLT-4, 48 h, read-out: GI
[5] = Cytotoxicity against human RPMI8226 cells assessed as cell growth inhibition at 10 uM after 48 hrs by SRB assay relative to control; format: functional; conditions: RPMI-8226, 48 h, read-out: GI
[6] = tested on: A549; experiment: Cytotoxicity against human A549 cells assessed as cell growth inhibition at 10 uM after 48 hrs by SRB assay relative to control; format: functional; conditions: A549, 48 h, read-out: GI
[7] = tested on: NCI-H460; experiment: Cytotoxicity against human NCI-H460 cells assessed as cell growth inhibition at 10 uM after 48 hrs by SRB assay relative to control; format: functional; conditions: NCI-H460, 48 h, read-out: GI
[8] = Cytotoxicity against human HCC2998 cells assessed as cell growth inhibition at 10 uM after 48 hrs by SRB assay relative to control; format: functional; conditions: HCC 2998, 48 h, read-out: GI
[9] = Cytotoxicity against human HCT116 cells assessed as cell growth inhibition at 10 uM after 48 hrs by SRB assay relative to control; format: functional; conditions: HCT-116, 48 h, read-out: GI
[10] = Cytotoxicity against human HCT15 cells assessed as cell growth inhibition at 10 uM after 48 hrs by SRB assay relative to control; format: functional; conditions: HCT-15, 48 h, read-out: GI
[11] = tested on: HT-29; experiment: Cytotoxicity against human HT-29 cells assessed as cell growth inhibition at 10 uM after 48 hrs by SRB assay relative to control; format: functional; conditions: HT-29, 48 h, read-out: GI
[12] = Cytotoxicity against human SW620 cells assessed as cell growth inhibition at 10 uM after 48 hrs by SRB assay relative to control; format: functional; conditions: SW-620, 48 h, read-out: GI
[13] = Cytotoxicity against human SF295 cells assessed as cell growth inhibition at 10 uM after 48 hrs by SRB assay relative to control; format: functional; conditions: SF-295, 48 h, read-out: GI
[14] = Cytotoxicity against human SF539 cells assessed as cell growth inhibition at 10 uM after 48 hrs by SRB assay relative to control; format: functional; conditions: SF-539, 48 h, read-out: GI
[15] = Cytotoxicity against human SNB19 cells assessed as cell growth inhibition at 10 uM after 48 hrs by SRB assay relative to control; format: functional; conditions: SNB-19, 48 h, read-out: GI
[16] = tested on: U-251; experiment: Cytotoxicity against human U251 cells assessed as cell growth inhibition at 10 uM after 48 hrs by SRB assay relative to control; format: functional; conditions: U-251, 48 h, read-out: GI
[17] = tested on: Malme-3M; experiment: Cytotoxicity against human MALME-3M cells assessed as cell growth inhibition at 10 uM after 48 hrs by SRB assay relative to control; format: functional; conditions: read-out: GI
[18] = tested on: M14; experiment: Cytotoxicity against human M14 cells assessed as cell growth inhibition at 10 uM after 48 hrs by SRB assay relative to control; format: functional; conditions: M14, 48 h, read-out: GI
[19] = tested on: MDA-MB-435; experiment: Cytotoxicity against human MDA-MB-435 cells assessed as cell growth inhibition at 10 uM after 48 hrs by SRB assay relative to control; format: functional; conditions: MDA-MB-435, 48 h, read-out: GI
[20] = tested on: SK-MEL-2; experiment: Cytotoxicity against human SK-MEL-2 cells assessed as cell growth inhibition at 10 uM after 48 hrs by SRB assay relative to control; format: functional; conditions: SK-MEL-2, 48 h, read-out: GI
[21] = tested on: SK-MEL-5; experiment: Cytotoxicity against human SK-MEL-5 cells assessed as cell growth inhibition at 10 uM after 48 hrs by SRB assay relative to control; format: functional; conditions: SK-MEL-5, 48 h, read-out: GI
[22] = Cytotoxicity against human UACC62 cells assessed as cell growth inhibition at 10 uM after 48 hrs by SRB assay relative to control; format: functional; conditions: UACC-62, 48 h, read-out: GI
[23] = Cytotoxicity against human IGROV1 cells assessed as cell growth inhibition at 10 uM after 48 hrs by SRB assay relative to control; format: functional; conditions: IGROV-1, 48 h, read-out: GI
[24] = Cytotoxicity against human OVCAR3 cells assessed as cell growth inhibition at 10 uM after 48 hrs by SRB assay relative to control; format: functional; conditions: OVCAR-3, 48 h, read-out: GI
[25] = Cytotoxicity against human OVCAR5 cells assessed as cell growth inhibition at 10 uM after 48 hrs by SRB assay relative to control; format: functional; conditions: OVCAR-5, 48 h, read-out: GI
[26] = Cytotoxicity against human NCI-ADR-RES cells assessed as cell growth inhibition at 10 uM after 48 hrs by SRB assay relative to control; format: functional; conditions: read-out: GI
[27] = Cytotoxicity against human SKOV3 cells assessed as cell growth inhibition at 10 uM after 48 hrs by SRB assay relative to control; format: functional; conditions: SK-OV-3, 48 h, read-out: GI
[28] = tested on: ACHN; experiment: Cytotoxicity against human ACHN cells assessed as cell growth inhibition at 10 uM after 48 hrs by SRB assay relative to control; format: functional; conditions: read-out: GI
[29] = Cytotoxicity against human RXF393 cells assessed as cell growth inhibition at 10 uM after 48 hrs by SRB assay relative to control; format: functional; conditions: RXF 393, 48 h, read-out: GI
[30] = tested on: SN12C; experiment: Cytotoxicity against human SN12C cells assessed as cell growth inhibition at 10 uM after 48 hrs by SRB assay relative to control; format: functional; conditions: read-out: GI
[31] = Cytotoxicity against human PC3 cells assessed as cell growth inhibition at 10 uM after 48 hrs by SRB assay relative to control; format: functional; conditions: PC-3, 48 h, read-out: GI
[32] = Cytotoxicity against human DU145 cells assessed as cell growth inhibition at 10 uM after 48 hrs by SRB assay relative to control; format: functional; conditions: DU-145, 48 h, read-out: GI
[33] = tested on: MCF7; experiment: Cytotoxicity against human MCF7 cells assessed as cell growth inhibition at 10 uM after 48 hrs by SRB assay relative to control; format: functional; conditions: MCF7, 48 h, read-out: GI
[34] = tested on: MDA-MB-231; experiment: Cytotoxicity against human MDA-MB-231 cells assessed as cell growth inhibition at 10 uM after 48 hrs by SRB assay relative to control; format: functional; conditions: MDA-MB-231, 48 h, read-out: GI
[35] = tested on: T47D; experiment: Cytotoxicity against human T47D cells assessed as cell growth inhibition at 10 uM after 48 hrs by SRB assay relative to control; format: functional; conditions: read-out: GI

Phosphatidylinositol 4,5-bisphosphate 3-kinase catalytic subunit gamma isoform (Homo sapiens), sequence (P48736 whole entry, looked up, canonical isoform): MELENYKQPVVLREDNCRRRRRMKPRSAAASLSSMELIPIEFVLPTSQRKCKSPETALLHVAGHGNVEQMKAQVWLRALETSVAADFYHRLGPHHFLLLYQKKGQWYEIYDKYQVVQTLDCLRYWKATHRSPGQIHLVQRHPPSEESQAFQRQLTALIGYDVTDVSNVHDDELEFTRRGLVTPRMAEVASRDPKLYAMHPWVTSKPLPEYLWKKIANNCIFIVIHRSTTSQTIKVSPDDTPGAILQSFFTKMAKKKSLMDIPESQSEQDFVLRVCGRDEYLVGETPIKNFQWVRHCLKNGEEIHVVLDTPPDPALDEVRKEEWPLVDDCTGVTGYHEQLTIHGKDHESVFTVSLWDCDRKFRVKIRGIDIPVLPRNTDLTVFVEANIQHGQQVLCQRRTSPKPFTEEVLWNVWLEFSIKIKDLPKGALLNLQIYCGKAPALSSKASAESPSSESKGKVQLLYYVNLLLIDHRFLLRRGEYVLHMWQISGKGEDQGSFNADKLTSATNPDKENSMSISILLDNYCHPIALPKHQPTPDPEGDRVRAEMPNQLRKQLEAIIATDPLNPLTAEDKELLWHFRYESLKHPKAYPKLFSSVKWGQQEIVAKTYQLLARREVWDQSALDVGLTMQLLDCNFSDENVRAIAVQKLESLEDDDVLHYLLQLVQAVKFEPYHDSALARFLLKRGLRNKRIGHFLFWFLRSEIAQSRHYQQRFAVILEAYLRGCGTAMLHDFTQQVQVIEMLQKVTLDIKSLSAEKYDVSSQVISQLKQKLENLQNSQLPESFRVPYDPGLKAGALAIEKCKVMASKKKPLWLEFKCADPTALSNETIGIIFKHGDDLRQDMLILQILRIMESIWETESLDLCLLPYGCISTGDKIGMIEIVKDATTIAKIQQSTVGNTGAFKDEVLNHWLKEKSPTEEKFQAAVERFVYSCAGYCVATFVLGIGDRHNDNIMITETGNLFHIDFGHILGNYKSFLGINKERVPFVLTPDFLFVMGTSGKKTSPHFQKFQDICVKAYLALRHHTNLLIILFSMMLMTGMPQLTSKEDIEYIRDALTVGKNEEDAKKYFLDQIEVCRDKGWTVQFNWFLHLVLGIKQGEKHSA

| SMILES | inhibition [1] | inhibition of growth at 10 µM [2] | inhibition of growth at 10 µM [3] | inhibition of growth at 10 µM [4] | inhibition of growth at 10 µM [5] | inhibition of growth at 10 µM [6] | inhibition of growth at 10 µM [7] | inhibition of growth at 10 µM [8] | inhibition of growth at 10 µM [9] | inhibition of growth at 10 µM [10] | inhibition of growth at 10 µM [11] | inhibition of growth at 10 µM [12] | inhibition of growth at 10 µM [13] | inhibition of growth at 10 µM [14] | inhibition of growth at 10 µM [15] | inhibition of growth at 10 µM [16] | inhibition of growth at 10 µM [17] | inhibition of growth at 10 µM [18] | inhibition of growth at 10 µM [19] | inhibition of growth at 10 µM [20] | other results |
| --- | --- | --- | --- | --- | --- | --- | --- | --- | --- | --- | --- | --- | --- | --- | --- | --- | --- | --- | --- | --- | --- |
| O=c1nc(N2CCOCC2)oc2c(-c3ccsc3)cccc12 | 29% | 4.04% | -1.04% | 9.6% | 3.35% | 3.82% | -4.22% | -2.71% | 2.6% | 6.07% | 12.7% | 2.66% | 17.1% | -6.9% | -3.77% | 8.75% | 9.75% | 3.28% | 3.77% | -2.53% | inhibition of growth at 10 µM [21]: 13.4%; inhibition of growth at 10 µM [22]: 31.4%; inhibition of growth at 10 µM [23]: 7.97%; inhibition of growth at 10 µM [24]: 11.8%; inhibition of growth at 10 µM [25]: 10.8%; inhibition of growth at 10 µM [26]: 13.3%; inhibition of growth at 10 µM [27]: -0.06%; inhibition of growth at 10 µM [28]: 2.44%; inhibition of growth at 10 µM [29]: 14.4%; inhibition of growth at 10 µM [30]: 9.14%; inhibition of growth at 10 µM [31]: 24.6%; inhibition of growth at 10 µM [32]: 0.16%; inhibition of growth at 10 µM [33]: 22.3%; inhibition of growth at 10 µM [34]: 6.78%; inhibition of growth at 10 µM [35]: 26.5% |
| O=c1nc(N2CCOCC2)oc2c(-c3cccc4ccccc34)cccc12 | 29% | 6.4% | 9.87% | 6.92% | 3.86% | 14.4% | -10% | -9.26% | 3.34% | 6.69% | 10.4% | 2.12% | 10.8% | 15% | 8.18% | 14.2% | 24.8% | 6.76% | -1.44% | -0.37% | inhibition of growth at 10 µM [21]: 20.8%; inhibition of growth at 10 µM [22]: 45.6%; inhibition of growth at 10 µM [23]: 24.6%; inhibition of growth at 10 µM [24]: 14.2%; inhibition of growth at 10 µM [25]: 10.8%; inhibition of growth at 10 µM [26]: 16.3%; inhibition of growth at 10 µM [27]: 10%; inhibition of growth at 10 µM [28]: 18.4%; inhibition of growth at 10 µM [29]: 38.9%; inhibition of growth at 10 µM [30]: 17.7%; inhibition of growth at 10 µM [31]: 40.3%; inhibition of growth at 10 µM [32]: 2.34%; inhibition of growth at 10 µM [33]: 10.2%; inhibition of growth at 10 µM [34]: 6.52%; inhibition of growth at 10 µM [35]: 20.3% |
| O=c1nc(N2CCOCC2)oc2c(-c3cccc4c3oc3ccccc34)cccc12 | 32% | 5.92% | 19.4% | 4.2% | 1.19% | 12% | -2.97% | -4.36% | 6.54% | 13.1% | 1.56% | 0.96% | 0.3% | 3.81% | 4.3% | 7.66% | 19.7% | -2.42% | 17.1% | -4.28% | inhibition of growth at 10 µM [21]: 13.7%; inhibition of growth at 10 µM [22]: 37.4%; inhibition of growth at 10 µM [23]: 0.3%; inhibition of growth at 10 µM [24]: 2.85%; inhibition of growth at 10 µM [25]: 10.7%; inhibition of growth at 10 µM [26]: 12.8%; inhibition of growth at 10 µM [27]: -14.9%; inhibition of growth at 10 µM [28]: 6.98%; inhibition of growth at 10 µM [29]: 15%; inhibition of growth at 10 µM [30]: 5.07%; inhibition of growth at 10 µM [31]: 23.2%; inhibition of growth at 10 µM [32]: 1.77%; inhibition of growth at 10 µM [33]: 11.3%; inhibition of growth at 10 µM [34]: 18%; inhibition of growth at 10 µM [35]: 15.1% |
| O=c1nc(N2CCOCC2)oc2ccc(-c3cccc4c3sc3ccccc34)cc12 | 0% | -10.4% | 10.7% | -8.92% | 3.98% | 5.3% | -1.46% | -17.8% | 8.17% | 29.8% | -13.4% | 5.25% | 0.5% | 0.05% | 4.68% | 6.66% | 4.63% | 2.99% | 1.87% | 1.3% | inhibition of growth at 10 µM [21]: 9.84%; inhibition of growth at 10 µM [22]: 12.6%; inhibition of growth at 10 µM [23]: -5.28%; inhibition of growth at 10 µM [24]: -11.1%; inhibition of growth at 10 µM [25]: 0.51%; inhibition of growth at 10 µM [26]: 2.44%; inhibition of growth at 10 µM [27]: -10.4%; inhibition of growth at 10 µM [28]: -1.95%; inhibition of growth at 10 µM [29]: -5.78%; inhibition of growth at 10 µM [30]: 6.33%; inhibition of growth at 10 µM [31]: 39.9%; inhibition of growth at 10 µM [32]: -3.21%; inhibition of growth at 10 µM [33]: 21%; inhibition of growth at 10 µM [34]: 12.8%; inhibition of growth at 10 µM [35]: 16.6% |
